Assay results reported in US20260000079A1, “COMPOSITIONS AND METHODS FOR MODULATING IMMUNITY IN PLANTS” (BOYCE THOMPSON INSTITUTE FOR PLANT RESEARCH, INC., priority 2019, published 2026).

Legend:
Meloidogyne incognita = assay: Arabidopsis nematode infection assay (root galls); type: in vivo; settings: 48 hours root pretreatment
Experimental: FIG. 4A provides a schematic of the experimental designs for assessing activation of defense pathways and resistance to nematodes and bacteria. […] Bacterial growth was assayed 3 days post inoculation. Data are averages±s.d. (n=17). […] Arabidopsis seedlings were treated with buffer or the indicated concentrations of ascr #18 for 48 hours before inoculation with approximately 300 freshly hatched M. incognita J2 larvae. The numbers of root galls of infected plants were counted 6 weeks post inoculation. Data are averages±s.d. (n≥15). […] Arabidopsis seedlings were treated with the indicated concentrations of ascr #18 for 48 hours before transfer into 12-well plates containing Pluronic® F-127 gel with ˜200 freshly hatched M. incognita J2 larvae. Larvae touching root tips (FIG. 4D) or the whole area of roots (FIG. 4E) were counted at 6 hours post seedling transfer. Data are average±s.d. (n=12). […] Transcript levels were determined by qRT-PCR and plotted as relative fold-change compared to mock treated plants. Data are averages±s.d (n≥6). *P≤0.05; **P≤0.005; ***P≤0.0005; two-tailed t-test.
For Arabidopsis nematode infection assays, Meloidogyne incognita was propagated and hatched as described (Manosalva, et al. (2015) Nat. Commun. 6:7795). Briefly, M. incognita were propagated on tomato (Solanum lycopersicum cv. Tiny Tim). M. incognita eggs were then isolated from egg masses on tomato roots with 0.5% sodium hypochlorite and rinsed with water on a 25-μm sieve. Collected nematode eggs were treated in a solution of 0.02% sodium azide for 20 minutes, and then hatched over water containing 1.5 mg/mL gentamycin sulfate and 0.05 mg/mL nystatin at room temperature on a Baermann pan for three days. Hatched second-stage juveniles (J2) were collected, surface sterilized with an aqueous solution of mercuric chloride (0.004%) and sodium azide (0.004%) for 10 minutes, and rinsed three times with sterile distilled water. […] Galls for M. incognita were counted under a microscope six weeks after inoculation. […]

tomato root exudates = assay: LC-MS of root exudates and growth media of ascr #18-treated tomato seedlings; type: in vivo, Solanum lycopersicum
Experimental: Data are average±SEM (n=6), n.d.=not detected. […] Exudates from approximately 40 seedlings were collected in distilled water and pooled. Abundances of ascarosides are shown as the peak area, as measured by LC-MS. Data are average±SEM (n=3); n.d.=not detected. FIGS. 5C and 5D show the relative abundances of ascarosides in root exudates of eight-day old tomato seedlings treated with 10 nM (FIG. 5C) or 1000 nM (FIG. 5D) ascr #18 for 6 hours. Exudates from approximately 10 seedlings were collected in distilled water and pooled. Abundances of ascarosides are shown as the peak area, as measured by LC-MS. Data are average±SEM (n=3); n.d.=not detected. FIG. 5E provides the relative abundances of ascr #10, ascr #1, and ascr #9 in the growth media of eight-day old tomato seedlings supplemented with 1 μM ascr #18. Ten-gram media samples were collected at different time points over a 48 hour period for metabolome extraction. Abundances of ascarosides are shown as the peak area, as measured by LC-MS.
To test this possibility, root-secreted metabolites of ascr #18- and mock-treated Arabidopsis were compared (FIG. 5A). For this experiment, 10-day old Arabidopsis seedlings were treated in growth media supplemented with ascr #18 for 6 hours prior to collection of exudates from roots submerged in water. […] Analogous results were obtained in experiments with tomato roots (FIG. 5C, 5D).

| Structure (SMILES) | protection against M. incognita (root galls 6 weeks post inoculation) (Meloidogyne incognita; acx1acx5 mutant) | protection against M. incognita (root galls 6 weeks post inoculation) (Meloidogyne incognita; wildtype, 10 nM) | protection against M. incognita (root galls 6 weeks post inoculation) (Meloidogyne incognita; wildtype, 50 nM) | relative abundance among root-excreted ascr #18 metabolites (tomato root exudates) |
| --- | --- | --- | --- | --- |
| CC1O[C@@H](O[C@@H](C)CCCCCCCCC(=O)O)C(O)C[C@H]1O (stereo in doubt) [ascr #18, (10R)-(3′R,5′R-dihydroxy-6′S-methyl-(2H)-tetrahydropyran-2-yloxy)-undecanoic acid] | no effect | significant protection | significant protection | – |
| C[C@H](CCC(=O)O)O[C@@H]1O[C@@H](C)[C@H](O)C[C@H]1O [ascr #9] | – | – | – | most abundant |
